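Briefly, cells in 96-well plates were exposed to five compound concentrations for 48 h, and endpoints were estimated by linear interpolation. The concentration for full growth arrest is given as TGI.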
Columns and labels:
Assay in all cases: NCI anticancer screen, dose series, 48 h
[1] = test system: SK-OV-3 ovarian
[2] = test system: HOP-62 NSCLC
[3] = test system: SF-268 CNS
[4] = test system: TK-10 renal
[5] = test system: PC-3 prostate
[6] = test system: SR leukemia
[7] = test system: A549 NSCLC
[8] = test system: SW-620 colon
[9] = test system: M14 melanoma
[10] = test system: MALME-3M melanoma
[11] = test system: RXF 393 renal
[12] = test system: K-562 leukemia
[13] = test system: SNB-75 CNS
[14] = test system: MDA-MB-231 breast
[15] = test system: T-47D breast
[16] = test system: MOLT-4 leukemia
[17] = test system: UO-31 renal
[18] = test system: HCC-2998 colon

| SMILES | TGI [1] [µM] | TGI [2] [µM] | TGI [3] [µM] | TGI [4] [µM] | TGI [5] [µM] | TGI [6] [µM] | TGI [7] [µM] | TGI [8] [µM] | TGI [9] [µM] | TGI [10] [µM] | TGI [11] [µM] | TGI [12] [µM] | TGI [13] [µM] | TGI [14] [µM] | TGI [15] [µM] | TGI [16] [µM] | TGI [17] [µM] | TGI [18] [µM] |
| --- | --- | --- | --- | --- | --- | --- | --- | --- | --- | --- | --- | --- | --- | --- | --- | --- | --- | --- |
| CN(N=O)c1nc2c(C(N)=O)ncn2s1 | > 100 | > 100 | > 100 | > 100 | > 100 | > 100 | > 100 | > 100 | > 100 | > 100 | > 100 | > 100 | > 100 | > 100 | > 100 | > 100 | > 100 | > 100 |
| CSc1nc(=O)cnn1C | > 100 | > 100 | > 100 | > 100 | > 100 | > 100 | > 100 | > 100 | > 100 | > 100 | > 100 | > 100 | > 100 | > 100 | > 100 | > 100 | > 100 | > 100 |
| O=C1NC2(CCNCC2)Oc2ccccc21 | > 100 | > 100 | > 100 | > 100 | > 100 | > 100 | > 100 | > 100 | > 100 | > 100 | > 100 | > 100 | > 100 | > 100 | > 100 | > 100 | > 100 | > 100 |
| CC(C)[C@H]1NC(=O)[C@H]2N=C(S[C@H]2C)[C@@H]2CCCN2C(=O)[C@H](Cc2ccccc2)NC(=O)[C@@H]2CSC(=N2)[C@@H](Cc2ccccc2)NC(=O)[C@@H]2CSC1=N2 | > 50 | > 50 | > 50 | > 50 | > 50 | 19.7 | > 50 | > 50 | > 50 | > 50 | > 50 | 23.9 |  | > 50 | > 50 | 29.5 | > 50 | 28.2 |
| COc1cccc(C23CCN(C)C(CC(O)C2)C3)c1OC (centres undefined) | > 100 | > 100 | > 100 | > 100 | > 100 | > 100 | > 100 | > 100 | > 100 | > 100 |  | > 100 |  | > 100 | > 100 | > 100 | > 100 |  |
| CO/C(=N\N=C\c1ccc(Cl)c(Cl)c1)c1ccncc1 | > 10 | > 10 | > 10 | > 10 | > 10 | > 10 | > 10 | > 10 | > 10 | > 10 | > 10 | > 10 | > 10 |  | > 10 | > 10 | > 10 | > 10 |
| COC(=O)/C=C/[C@@H]1[C@H](C)N1S(=O)(=O)c1ccc(C)cc1 (some centres undefined) | > 100 | > 100 | > 100 | > 100 | > 100 | > 100 | > 100 | > 100 | > 100 | > 100 | > 100 | > 100 |  | > 100 | > 100 | > 100 |  | > 100 |
| CC(Oc1ccccc1Cl)C(=O)NN1C(=O)CC(=O)N(c2ccc(Cl)cc2)C1=S (centres undefined) | > 100 | > 100 | > 100 | > 100 | > 100 | 54.4 | > 100 | > 100 | > 100 | > 100 | 90.4 | > 100 | > 100 | > 100 | > 100 | 95.8 | > 100 | > 100 |
| COC(=O)c1ccc2c(c1)CC1(C2)Cc2ccccc2C1=O (centres undefined) | > 100 | > 100 | > 100 | > 100 | > 100 | 65.7 | > 100 | > 100 | 38.6 | 67.1 | > 100 | > 100 | 67.3 | 84.8 | > 100 | 34.4 | > 100 | > 100 |
| C[C@@H]1CC[C@H]2[C@H](C)C(OC3O[C@@H]4O[C@@]5(C)CC[C@H]6[C@H](C)CC[C@@H]([C@@H]3C)[C@@]46O5)O[C@@H]3O[C@@]4(C)CC[C@@H]1[C@]32O4 (some centres undefined) | > 100 | > 100 | > 100 | > 100 | > 100 | > 100 | > 100 | > 100 | > 100 | > 100 |  | > 100 | > 100 | > 100 | > 100 | > 100 |  | > 100 |
| CC(C)[Si]1(C(C)C)OCC2OC(n3ccc(=O)[nH]c3=O)C([Se]c3ccccc3)C2O[Si](C(C)C)(C(C)C)O1 (centres undefined) | 31.2 | 25.2 | 10.3 | 19.9 | 11.9 | 27.1 | 22.1 | 6.62 | 21.8 | 8.93 | 9.65 |  | 2.42 | 7.79 | 19.9 | > 22.9 | 21.5 | 3 |
| CCCCCCCCCCCCOCC1(COCCCCCCCCCCCC)COC(c2ccc(N)cc2)OC1 | > 100 | > 100 | > 100 | > 100 | > 100 | > 100 | > 100 | > 100 | > 100 | > 100 |  | > 100 | > 100 | > 100 | > 100 | > 100 | > 100 | > 100 |
| Cc1ccc(-c2cc(-c3ccc(Cl)cc3)nc(/N=C3\C(=O)N(CN(C)C)c4ccccc43)n2)cc1 | > 100 | > 100 | > 100 | > 100 | > 100 |  | > 100 | > 100 | > 100 | > 100 | 63.9 | > 100 | > 100 | > 100 | > 100 | 33.5 | > 100 |  |
| CCc1n[nH]c(=O)n1/N=C(\C)c1ccccc1 |  | > 100 | > 100 | > 100 | > 100 |  | > 100 | > 100 | > 100 | > 100 | > 100 | > 100 |  | > 100 | > 100 | > 100 | > 100 |  |
| CCCCCCCCCCCCCCCCNC(=O)/C(=C\c1ccc(Cl)c(Cl)c1)NC(=O)c1ccccc1 | > 100 | 51.6 | > 100 | 48.8 | 74.6 | 90.7 | > 100 | > 100 | > 100 | > 100 | 31.8 | 64.3 | 33.1 | 40.3 | > 100 | 37.5 | > 100 |  |
| CC(C)CC(N)C(=O)NC(C(=O)NC(CCCNC(=N)N)C(=O)NC(CS)C(=O)NC1CSCC(C(=O)NC(Cc2ccccc2)C(=O)NC(C(=O)NC(CCCNC(=N)N)C(=O)O)C(C)C)NC(=O)C2CCCN2C(=O)C(CCCCN)NC(=O)C2CCCN2C(=O)C2CCCN2C(=O)C(Cc2ccc(O)cc2)NC(=O)C(CO)NC(=O)C(CCCCN)NC(=O)C(C(C)O)NC(=O)C(Cc2c[nH]c3ccccc23)NC1=O)C(C)C (centres undefined) | > 25 | > 25 | > 25 | > 25 | > 25 | > 25 | > 25 | > 25 | > 25 | > 25 |  | > 25 |  | > 25 | > 25 | > 25 | > 25 |  |
| C=C1C(=O)O[C@H]2C1C[C@H](O)[C@@]1(C)OC1CC[C@@]1(C)O[C@H]21 (some centres undefined) | > 100 | 73.3 | 95.7 | 36.5 | 39.1 | 40.5 | > 100 | 33.2 | 30.6 | 27.4 | 46.9 | 19.7 | > 100 |  | 36.4 | 29.8 | 31 | 28.5 |
| CCCc1nc2c(n1CC)C(=O)c1ccccc1C2=O | > 100 | > 100 | > 100 | > 100 | > 100 | > 100 | > 100 | > 100 | 94 | 60.5 | 69.1 | > 100 | > 100 | > 100 | > 100 | > 100 |  | > 100 |
| Nc1ccccc1C(=O)N=Nc1c(O)[nH]c2ccccc12 | > 100 | > 100 | > 100 | > 100 | > 100 | > 100 | > 100 |  | > 100 | > 100 | > 100 | > 100 | 81 | > 100 | > 100 | > 100 | > 100 | > 100 |
| COc1ccccc1N/C(SCc1ccccc1)=C(/C(Cl)=C(Cl)Cl)[N+](=O)[O-] | > 100 | > 100 | 39 |  | > 100 |  | > 100 | 31.7 | > 100 | 38.7 |  | 57.9 | 84.2 | 48.4 | 65.6 | > 100 | 34.6 |  |
| NC(=O)[N+](=CC(=S)Nc1ccccc1Cl)C(N)=O | > 100 | > 100 | > 100 | > 100 | > 100 | > 100 | > 100 | > 100 | > 100 |  | > 100 | > 100 |  | > 100 | > 100 | > 100 | > 100 | > 100 |
| O=C1Oc2ccccc2C(=O)/C1=C/N1C(=O)CNC1=S | > 100 | > 100 | > 100 | > 100 | > 100 |  | > 100 | > 100 | > 100 |  | > 100 | > 100 |  | > 100 | > 100 | > 100 | > 100 | > 100 |
| CC1=CCC(C(C)(C)NC(=O)c2ccccc2)C/C1=N/O (centres undefined) | > 100 | > 100 | > 100 | > 100 | > 100 |  | > 100 | > 100 | > 100 |  |  | > 100 | > 100 | > 100 | > 100 | > 100 | > 100 | > 100 |
| O=C1OC([C@H](O)c2cccnc2)c2ccccc21 (some centres undefined) | > 10 | > 10 | > 10 | > 10 | > 10 | > 10 | > 10 | > 10 | > 10 |  | > 10 | > 10 | > 10 | > 10 | > 10 | > 10 | > 10 | > 10 |
| CCOC(=O)c1nc2ccc(C(F)(F)F)cc2nc1Nc1ccc(OC)cc1 |  | 63.5 | > 100 | > 100 | > 100 | > 100 | > 100 | > 100 | > 100 | > 100 | 70.1 | > 100 | > 100 | 50.6 | > 100 | > 100 | > 100 | > 100 |
| C1CSCC2(COC2)CSCCSCC2(COC2)CS1 | > 100 | > 100 | > 100 | > 100 | > 100 | > 100 | > 100 | > 100 | > 100 |  |  | > 100 | > 100 | > 100 | > 100 | > 100 | > 100 | > 100 |
| C1CCCN(NC2=NCCO2)CC1 |  | > 100 |  | > 100 | > 100 | > 100 | > 100 | > 100 | > 100 | > 100 | > 100 | > 100 | > 100 | > 100 | > 100 | > 100 | > 100 | > 100 |
